The subject of test [1] is HeLa. Kind of test: Cytotoxicity against human HeLa cells assessed as reduction in cell viability using compound addition to cell culture cells in log phase of growth and incubated for 48 hrs by MTT assay. Type of test: functional, cell-based. Particulars: Homo sapiens, HeLa, 48 h; read-out: IC50. (In general: Tetrazolium assays rely on reduction of a dye to a coloured formazan, in cell work by metabolically active cells.)

In test [2] the test system is MCF7. The experiment in a line: Cytotoxicity against human MCF7 cells assessed as reduction in cell viability using compound addition to cell culture cells in lag phase of growth and incubated for 48 hrs by MTT assay. Particulars: Homo sapiens, MCF7, 48 h; read-out: IC50. Type of test: functional, cell-based.
Test [3] relates to A549. The experiment in a line: Cytotoxicity against human A549 cells assessed as reduction in cell viability using compound addition to cell culture cells in lag phase of growth and incubated for 48 hrs by MTT assay. Type of test: functional, cell-based. Particulars: Homo sapiens, A549, 48 h; read-out: IC50.
Test [4] concerns HeLa. The experiment in a line: Cytotoxicity against human HeLa cells assessed as reduction in cell viability using compound addition to cell culture cells in lag phase of growth and incubated for 48 hrs by MTT assay. Type of test: functional, cell-based. The note with it: Homo sapiens, HeLa, 48 h; read-out: IC50.
In test [5] the test system is A549. Kind of test: Cytotoxicity against human A549 cells assessed as reduction in cell viability using compound addition to cell culture cells in log phase of growth and incubated for 48 hrs by MTT assay. Type of test: functional, cell-based. The note with it: Homo sapiens, A549, 48 h; read-out: IC50.
For test [6], the system named is Vero. Kind of test: Cytotoxicity against African green monkey Vero cells assessed as reduction in cell viability using compound addition to cell culture cells in lag phase of growth and incubated for 48 hrs by MTT assay. Type of test: cell-based, Chlorocebus sabaeus. Particulars: Chlorocebus sabaeus, Vero, 48 h; read-out: IC50.
Test [7] has as its system Vero. Kind of test: Cytotoxicity against African green monkey Vero cells assessed as reduction in cell viability using compound addition to cell culture cells in log phase of growth and incubated for 48 hrs by MTT assay. Type of test: cell-based, Chlorocebus sabaeus. Particulars: Chlorocebus sabaeus, Vero, 48 h; read-out: IC50.
In test [8] the test system is MCF7. The experiment in a line: Cytotoxicity against human MCF7 cells assessed as reduction in cell viability using compound addition to cell culture cells in log phase of growth and incubated for 48 hrs by MTT assay. The note with it: Homo sapiens, MCF7, 48 h; read-out: IC50. Type of test: functional, cell-based.

Numbered stars: 1 amine (or outer) side, 2 acyl side, 3 side chain; on linkers, the order of the positions; unused ones are H or OH. Bridge positions count the residues as written; N and C are the ends. Square brackets hold non-standard residues; d marks the D form. Peptide text beside a SMILES is read from it. I, II: the chains in the order shown. Actinocin(1to9) = Cc1c2oc3c(C)ccc(C(=O)[*:2])c3nc-2c(C(=O)[*:1])c(N)c1=O; NMeV = CN[C@H](C(=O)O)C(C)C; Sar = CNCC(=O)O

In general, IC50 refers to the midpoint of a concentration-inhibition curve. As to `CC(=O)OCC1=C(C)C[C@H]([C@@H](C)[C@H]2CC[C@H]3[C@@H]4C[C@H]5O[C@]56C(=O)C=CC(=O)[C@]6(C)[C@H]4CC[C@]23C)OC1=O`, the IC50 with HeLa [1] came out at 17.5 µM; in the test with MCF7 [2] it was 6.4 µM; with A549 [3] it was 13.2 µM; in the test with HeLa [4] it was 16.3 µM; with A549 [5], 16.2 µM; with Vero [6], 3.9 µM. For the same compound, the IC50 is 6.4 µM with Vero [7] and 6.8 µM in the test on MCF7 [8].
In the case of `CC1=C(CO)C(=O)O[C@@H]([C@@H](C)[C@H]2CC[C@H]3[C@@H]4C[C@@H]5ON[C@@H]6CC(=O)[C@](C)([C@H]4CC[C@]23C)[C@@]5(O)[C@H]6O)C1`, the IC50 in the test on HeLa [1], in the test with MCF7 [2], in the test on A549 [3], in the test with HeLa [4], in the test on A549 [5] and in the test on Vero [6] was > 40 µM each time. The IC50 in the test on Vero [7] and in the test with MCF7 [8] was > 40 µM each time.
With `COCC1=C(C)C[C@H]([C@@H](C)[C@H]2CC[C@H]3[C@@H]4C[C@H]5O[C@]56[C@@H](O)C=CC(=O)[C@]6(C)[C@H]4CC[C@]23C)OC1=O`, the IC50 is 3.3 µM with HeLa [1]; 1.4 µM with MCF7 [2]; 4.2 µM in the test with A549 [3]; 3.2 µM with HeLa [4]; 5.3 µM in the test on A549 [5]; 0.9 µM with Vero [6]. The values for the IC50 in the test on Vero [7] and with MCF7 [8] were 1.5 µM and 1.9 µM, respectively.
In the case of `COCC1=C(C)C[C@H]([C@@H](C)[C@H]2CC[C@H]3[C@@H]4C[C@H]5O[C@]56[C@@H](O)[C@@H](OC)CC(=O)[C@]6(C)[C@H]4CC[C@]23C)OC1=O`, the IC50 in the test with HeLa [1] was > 40 µM; with MCF7 [2], 26.9 µM; in the test with A549 [3], > 40 µM; with HeLa [4], > 40 µM; in the test on A549 [5], > 40 µM; with Vero [6], 36.9 µM. Moreover, the values for the concentration for half-maximal inhibition (IC50) with Vero [7] and with MCF7 [8] were > 40 µM and 21.6 µM, respectively.
In the case of `CC1=C(CO)C(=O)O[C@@H]([C@@H](C)[C@H]2CC[C@H]3[C@@H]4C[C@H]5O[C@]56[C@@H](O)[C@H]5O[C@H]5C(=O)[C@]6(C)[C@H]4CC[C@]23C)C1`, the IC50 in the test with HeLa [1], with MCF7 [2], with A549 [3], in the test on HeLa [4], with A549 [5] and with Vero [6] was > 40 µM throughout. Moreover, the IC50 with Vero [7] and in the test on MCF7 [8] was > 40 µM each time.
For the compound `COC(=O)CCC(=O)OCC1=C(C)C[C@H]([C@@H](C)[C@H]2CC[C@H]3[C@@H]4C[C@H]5O[C@]56[C@@H](O)C=CC(=O)[C@]6(C)[C@H]4CC[C@]23C)OC1=O`, the IC50 in the test on HeLa [1] turned out to be 2.9 µM; with MCF7 [2] it was 0.4 µM; with A549 [3], 2.3 µM; in the test with HeLa [4] it was 0.9 µM; with A549 [5], 3.7 µM; in the test on Vero [6], 0.6 µM. Besides, the figures for the IC50 in the test on Vero [7] and in the test on MCF7 [8] were 0.6 µM and 1.6 µM, respectively.
Consider `CC1=C(C)C(=O)O[C@@H]([C@@H](C)[C@H]2CC[C@H]3[C@@H]4C[C@H]5O[C@]56[C@@H](O)CC[C@@H](O)[C@]6(C)[C@H]4CC[C@]23C)C1`, for which the IC50 with HeLa [1], in the test with MCF7 [2], in the test on A549 [3], in the test with HeLa [4], with A549 [5] and with Vero [6] was > 40 µM throughout. The IC50 in the test on Vero [7] and in the test with MCF7 [8] was > 40 µM throughout.
`COc1ccc(C(=O)OCC2=C(C)C[C@H]([C@@H](C)[C@H]3CC[C@H]4[C@@H]5C[C@H](Cl)[C@]6(O)[C@@H](O)C=CC(=O)[C@]6(C)[C@H]5CC[C@]34C)OC2=O)cc1`: the IC50 is 37.7 µM in the test with HeLa [1]; 3 µM in the test on MCF7 [2]; > 40 µM in the test with A549 [3]; 26.4 µM with HeLa [4]; > 40 µM in the test on A549 [5]; 3.8 µM in the test on Vero [6]. Further, the IC50 in the test with Vero [7] and with MCF7 [8] was 6.8 µM in each case.
For `CC1=C(CO)C(=O)O[C@@H]([C@@H](C)[C@H]2CC[C@H]3[C@@H]4C[C@H]5O[C@]56[C@@H](O)CC[C@@H](O)[C@]6(C)[C@H]4CC[C@]23C)C1`, the IC50 with HeLa [1], in the test on MCF7 [2], in the test on A549 [3], in the test with HeLa [4], in the test on A549 [5] and with Vero [6] was > 40 µM each time. The IC50 in the test with Vero [7] and in the test with MCF7 [8] was > 40 µM each time.
Turning to `CC1=C(CO[Si](C)(C)C(C)(C)C)C(=O)O[C@@H]([C@@H](C)[C@H]2CC[C@H]3[C@@H]4C[C@H](Cl)[C@]5(O)[C@@H](O)C=CC(=O)[C@]5(C)[C@H]4CC[C@]23C)C1`, the IC50 in the test with HeLa [1] is 3.4 µM; in the test on MCF7 [2], 2.5 µM; in the test on A549 [3] it was 4.1 µM; in the test on HeLa [4], 3.1 µM; with A549 [5] it was 3.8 µM; in the test with Vero [6], 3.5 µM. The IC50 with Vero [7] and in the test on MCF7 [8] was 3.1 µM throughout.
`Cc1c2oc3c(C)ccc(C(=O)N[C@@H]4C(=O)N[C@H](C(C)C)C(=O)N5CCC[C@H]5C(=O)N(C)CC(=O)N(C)[C@@H](C(C)C)C(=O)O[C@@H]4C)c3nc-2c(C(=O)N[C@@H]2C(=O)N[C@H](C(C)C)C(=O)N3CCC[C@H]3C(=O)N(C)CC(=O)N(C)[C@@H](C(C)C)C(=O)O[C@@H]2C)c(N)c1=O` [DACTINOMYCIN] (I: T[dV]P[Sar][NMeV] / II: T[dV]P[Sar][NMeV]; ester I:1-I:C, II:1-II:C; linker I:N-II:N via Actinocin(1to9)): the IC50 in the test on HeLa [1] is 0.0032 µM; in the test with A549 [5], 0.008 µM; in the test on Vero [7], 0.011 µM; in the test on MCF7 [8], 0.048 µM.
On to `Sc1ncnc2nc[nH]c12` [MERCAPTOPURINE ANHYDROUS], for which the IC50 with Vero [7] was > 117 µM.
With `CC1=C(CO)C(=O)O[C@@H]([C@@H](C)[C@H]2CC[C@H]3[C@@H]4C[C@H]5O[C@]56[C@@H](O)CCC(=O)[C@]6(C)[C@H]4CC[C@]23C)C1`, the IC50 with HeLa [1] is 32.2 µM; with A549 [5] it was 19.7 µM; in the test on Vero [7], 24.2 µM; in the test on MCF7 [8] it was 12.2 µM.
For the compound `CC1=C(CO[Si](C)(C)C(C)(C)C)C(=O)O[C@@H]([C@@H](C)[C@H]2CC[C@H]3[C@@H]4C[C@H]5O[C@]56[C@@H](O)C=CC(=O)[C@]6(C)[C@H]4CC[C@]23C)C1`, the IC50 was found to be 3.1 µM with HeLa [1], 4 µM in the test on A549 [5], 0.8 µM with Vero [7] and 1.2 µM in the test with MCF7 [8].
`CC(=O)OCC1=C(C)C[C@H]([C@@H](C)[C@H]2CC[C@H]3[C@@H]4C[C@H]5O[C@]56[C@@H](O)C=CC(=O)[C@]6(C)[C@H]4CC[C@]23C)OC1=O`: the IC50 was 10.2 µM with HeLa [1], 5.9 µM in the test on Vero [7] and 4.6 µM in the test on MCF7 [8].
Consider `CC1=C(CO)C(=O)O[C@@H]([C@@H](C)[C@H]2CC[C@H]3[C@@H]4C[C@H](Cl)[C@]5(O)[C@@H](O)C=CC(=O)[C@]5(C)[C@H]4CC[C@]23C)C1`, for which the IC50 in the test with HeLa [1] was determined as 17.5 µM; in the test with A549 [5] it was 16.1 µM; in the test with MCF7 [8], 7.9 µM.
